According to patent publication USRE47141E1, “Methods of treating fibrosis, cancer and vascular injuries” (EWHA University—Industry Collaboration Foundation, priority 2010, dated 2018):

Key:
[1] = target: PKA (Homo sapiens (Human), UniProt P17612); assay: Kinase selectivity profiling; type: biochemical
Procedure: (§1) Kinase assays were performed in 96-well FlashPlates™ from Perkin Elmer in a […]. […] The reaction cocktail contained 70 mM HEPES-NaOH, pH 7.5, 3 mM MnCl2, 3 μM Na3VO4, 1.2 mM DTT, 1 μM [γ-^33P]-ATP (approximately 6×10^5 cpm per well), protein kinase (variable amounts), and substrate (variable amounts). The reaction cocktails were incubated at 30° C. for 60 min. The reaction was stopped with 50 μL of 2% (v/v) H3PO4, and plates were aspirated and washed two times with 200 μL 0.9% (w/v) NaCl. ALL assays were performed with a BeckmanCoulter Biomek 2000/SL robotic system. Incorporation of ^33Pi (counting of “cpm”) was determined with a microplate scintillation counter.

[2] = target: CDK1/CycA (Homo sapiens (Human), UniProt P06493); assay: Kinase selectivity profiling; type: biochemical
Procedure: as §1

[3] = target: DAPK1 (Homo sapiens (Human), UniProt P53355); assay: Kinase selectivity profiling; type: biochemical
Procedure: as §1

[4] = target: ALK2 (Homo sapiens (Human), UniProt Q04771); assay: Kinase selectivity profiling; type: biochemical
Procedure: as §1

[5] = target: RPS6KA1 (Homo sapiens (Human), UniProt Q15418); assay: Kinase selectivity profiling; type: biochemical
Procedure: as §1

[6] = target: MST1 (Homo sapiens (Human), UniProt Q13043); assay: Kinase selectivity profiling; type: biochemical
Procedure: as §1

[7] = target: PDGFRβ (Homo sapiens (Human), UniProt P09619); assay: Kinase selectivity profiling; type: biochemical
Procedure: as §1

[8] = target: ALK1 (Homo sapiens (Human), UniProt P37023); assay: Kinase selectivity profiling; type: biochemical
Procedure: as §1

[9] = target: PDGFRα wt (Homo sapiens (Human), UniProt P16234); assay: Kinase selectivity profiling; type: biochemical
Procedure: as §1

[10] = target: PAK1 (Homo sapiens (Human), UniProt Q13153); assay: Kinase selectivity profiling; type: biochemical
Procedure: as §1

[11] = target: PKCα (Homo sapiens (Human), UniProt P17252); assay: Kinase selectivity profiling; type: biochemical
Procedure: as §1

[12] = target: VEGF-R1 (Homo sapiens (Human), UniProt P17948); assay: Kinase selectivity profiling; type: biochemical
Procedure: as §1

[13] = target: EGF-R wt (Homo sapiens (Human), UniProt P00533); assay: Kinase selectivity profiling; type: biochemical
Procedure: as §1

[14] = target: AKT1 (Homo sapiens (Human), UniProt P31749); assay: Kinase selectivity profiling; type: biochemical
Procedure: as §1

[15] = target: ERK1 (Homo sapiens (Human), UniProt P27361); assay: Kinase selectivity profiling; type: biochemical
Procedure: as §1

[16] = target: MEK1 wt (Homo sapiens (Human), UniProt Q02750); assay: Kinase selectivity profiling; type: biochemical
Procedure: as §1

[17] = system: BALB/c 4T1 xenografted mice; assay: Anti-metastatic effect on BALB/c 4T1 xenografted mice model; type: in vivo
Procedure: Female BALB/c mice were purchased from Orient Bio Inc. (Seoul, Korea). Animals were maintained in a temperature-controlled room (22° C.) and supplied with food and water ad libitum. 4T1 cells (1.2×10^4 cells) were suspended in PBS and implanted into the left #4 mammary fat pad of five to six-week-old female BALB/c mice (day 0). In Experiment 1, treatment was started after tumor implantation (day 0). […] In Experiment 2, treatment was started on day 4. […] In Experiment 3, treatment was started on day 4. […] In Experiment 4, 4T1 cells (1×10^4 cells) were suspended in PBS and implanted into the left #4 mammary fat pad of ten-week-old female BALB/c mice (day 0). Treatment was started on day 10. Example 61 (43.6 mg/kg) dissolved in saline was given to mice intraperitoneally every other day for 2.5 weeks. In all Experiments, mice were sacrificed at 24 to 72 h after the last dosing, and 15% India ink solution (Hardy Diagnostics) in PBS was immediately injected into the trachea. […] Number of metastatic nodule was counted on the surface of left lobe of lung, and picture of lung was taken with digital camera. The tumor size was measured using calipers, and the tumor volume was calculated by using the following equation: Tumor volume=(0.5236)×(width)^2×(length)
Either vehicle buffer (4 mM HCl, 1 mg/mL BSA) or TGF-β1 (50 ng/mouse) in vehicle buffer was given to mice intravenously at 2 h before mice were sacrificed. Tumor tissues from mice were lysed in RIPA buffer [50 mM Tris, pH 7.5, 150 mM NaCl, 0.1% sodium dodecyl sulfate, 0.5% sodium deoxycholate, 1% NP-40, 1 mM NaF, 1 mM Na3VO4, 1 mM PMSF, a protease inhibitor cocktail (1 tablet of Roche Diagnostics GmbH protease inhibitor cocktail/10 mL) (Roche)] for 20 min on ice. Lysates were cleared by centrifugation at 13000 rpm at 4° C. for 20 min. Protein content of supernatants was determined using Micro-BCA (bicinchoninic acid) protein assay kit (Thermo Scientific). Lysates containing 20-50 μg total protein were separated by electrophoresis on polyacrylamide gel and then electrophoretically transferred to polyvinylidene difluoride transfer membranes (Millipore, Billerica, Mass., USA). Membranes were blocked with 5% BSA (Sigma-Aldrich) in PBS containing 0.5% Tween-20 (PBST) for 1 h and incubated overnight at 4° C. with one of following antibodies: anti-phospho-Smad2 (Millipore), anti-Smad2/3 (BD Transduction Laboratories, NJ, USA), or anti-β-actin (Sigma-Aldrich) in PBST containing 1% BSA. […] Bound antibodies were detected using Western Blotting Luminol Reagent (SantaCruz Biotechnology). Band intensities were analyzed using a densitometer LAS-3000 imager (FUJIFILM, Tokyo, Japan).

[18] = read-out: % inhibition at 1 μM, 1 μM
[19] = read-out: % inhibition at 10 μM, 10 μM

Chain of MEK1 wt (Q02750 whole entry): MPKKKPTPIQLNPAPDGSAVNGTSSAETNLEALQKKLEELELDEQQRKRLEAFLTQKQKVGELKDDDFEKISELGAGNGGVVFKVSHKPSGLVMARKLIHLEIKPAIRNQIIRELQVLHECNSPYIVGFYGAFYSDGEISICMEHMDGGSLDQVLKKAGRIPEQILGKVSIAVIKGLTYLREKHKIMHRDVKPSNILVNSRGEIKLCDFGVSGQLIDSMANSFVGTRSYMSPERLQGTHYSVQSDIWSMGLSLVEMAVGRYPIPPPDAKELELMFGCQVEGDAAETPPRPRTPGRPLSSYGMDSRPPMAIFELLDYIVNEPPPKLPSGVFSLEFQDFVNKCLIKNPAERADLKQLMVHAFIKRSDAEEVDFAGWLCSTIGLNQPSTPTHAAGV
Chain of EGF-R wt (P00533 25-1210): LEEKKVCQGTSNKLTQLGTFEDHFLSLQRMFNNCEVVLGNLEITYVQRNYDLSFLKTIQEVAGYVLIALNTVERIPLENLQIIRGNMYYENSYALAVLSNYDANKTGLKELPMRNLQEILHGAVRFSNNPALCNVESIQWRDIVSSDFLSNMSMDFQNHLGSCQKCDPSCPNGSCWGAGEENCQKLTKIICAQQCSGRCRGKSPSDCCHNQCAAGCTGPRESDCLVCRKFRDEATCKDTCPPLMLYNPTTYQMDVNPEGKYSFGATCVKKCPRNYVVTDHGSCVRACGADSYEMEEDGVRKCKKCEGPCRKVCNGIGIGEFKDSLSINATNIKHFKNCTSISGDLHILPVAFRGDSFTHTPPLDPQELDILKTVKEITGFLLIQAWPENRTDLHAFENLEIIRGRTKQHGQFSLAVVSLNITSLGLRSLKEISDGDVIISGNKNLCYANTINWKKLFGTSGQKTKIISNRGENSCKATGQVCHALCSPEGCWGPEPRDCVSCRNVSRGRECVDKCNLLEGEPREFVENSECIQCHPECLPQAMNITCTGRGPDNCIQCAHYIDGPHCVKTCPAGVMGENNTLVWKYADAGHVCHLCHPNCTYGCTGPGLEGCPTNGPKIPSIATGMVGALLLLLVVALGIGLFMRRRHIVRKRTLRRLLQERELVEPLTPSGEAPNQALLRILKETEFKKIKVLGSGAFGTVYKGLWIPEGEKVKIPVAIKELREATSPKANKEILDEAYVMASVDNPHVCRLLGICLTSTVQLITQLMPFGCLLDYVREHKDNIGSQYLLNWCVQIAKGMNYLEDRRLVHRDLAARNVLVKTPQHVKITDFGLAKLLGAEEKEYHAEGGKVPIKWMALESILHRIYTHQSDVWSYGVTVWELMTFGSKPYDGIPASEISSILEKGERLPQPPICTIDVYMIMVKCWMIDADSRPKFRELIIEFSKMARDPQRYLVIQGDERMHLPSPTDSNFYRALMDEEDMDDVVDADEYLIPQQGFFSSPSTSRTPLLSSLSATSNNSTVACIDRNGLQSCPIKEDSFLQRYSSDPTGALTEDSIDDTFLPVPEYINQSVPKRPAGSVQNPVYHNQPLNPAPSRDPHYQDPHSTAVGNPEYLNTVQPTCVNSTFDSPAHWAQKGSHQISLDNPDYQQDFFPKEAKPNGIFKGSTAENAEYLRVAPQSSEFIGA
Chain of ERK1 (P27361 whole entry, species assumed): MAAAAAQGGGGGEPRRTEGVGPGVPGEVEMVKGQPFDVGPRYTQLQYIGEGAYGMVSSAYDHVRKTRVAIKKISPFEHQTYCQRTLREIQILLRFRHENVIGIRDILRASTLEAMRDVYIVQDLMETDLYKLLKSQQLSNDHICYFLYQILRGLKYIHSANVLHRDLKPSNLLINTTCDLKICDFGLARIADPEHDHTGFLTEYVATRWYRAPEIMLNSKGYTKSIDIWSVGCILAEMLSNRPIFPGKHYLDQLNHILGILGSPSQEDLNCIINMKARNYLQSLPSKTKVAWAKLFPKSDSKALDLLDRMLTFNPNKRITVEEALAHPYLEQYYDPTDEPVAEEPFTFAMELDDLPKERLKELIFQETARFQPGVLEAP
Chain of AKT1 (P31749 whole entry, species assumed): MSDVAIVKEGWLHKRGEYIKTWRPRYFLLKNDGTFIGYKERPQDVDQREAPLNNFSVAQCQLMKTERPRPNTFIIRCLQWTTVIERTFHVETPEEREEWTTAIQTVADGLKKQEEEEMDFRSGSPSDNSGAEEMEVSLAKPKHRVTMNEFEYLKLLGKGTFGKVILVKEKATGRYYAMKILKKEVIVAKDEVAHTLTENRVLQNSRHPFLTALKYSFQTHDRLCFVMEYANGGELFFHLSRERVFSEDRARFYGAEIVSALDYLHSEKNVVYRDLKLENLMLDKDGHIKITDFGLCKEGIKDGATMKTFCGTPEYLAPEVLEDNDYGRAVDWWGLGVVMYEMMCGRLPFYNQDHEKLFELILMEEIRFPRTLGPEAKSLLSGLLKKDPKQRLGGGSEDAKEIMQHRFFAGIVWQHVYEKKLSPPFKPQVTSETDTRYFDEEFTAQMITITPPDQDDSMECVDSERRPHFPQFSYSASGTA
Chain of PAK1 (Q13153 whole entry): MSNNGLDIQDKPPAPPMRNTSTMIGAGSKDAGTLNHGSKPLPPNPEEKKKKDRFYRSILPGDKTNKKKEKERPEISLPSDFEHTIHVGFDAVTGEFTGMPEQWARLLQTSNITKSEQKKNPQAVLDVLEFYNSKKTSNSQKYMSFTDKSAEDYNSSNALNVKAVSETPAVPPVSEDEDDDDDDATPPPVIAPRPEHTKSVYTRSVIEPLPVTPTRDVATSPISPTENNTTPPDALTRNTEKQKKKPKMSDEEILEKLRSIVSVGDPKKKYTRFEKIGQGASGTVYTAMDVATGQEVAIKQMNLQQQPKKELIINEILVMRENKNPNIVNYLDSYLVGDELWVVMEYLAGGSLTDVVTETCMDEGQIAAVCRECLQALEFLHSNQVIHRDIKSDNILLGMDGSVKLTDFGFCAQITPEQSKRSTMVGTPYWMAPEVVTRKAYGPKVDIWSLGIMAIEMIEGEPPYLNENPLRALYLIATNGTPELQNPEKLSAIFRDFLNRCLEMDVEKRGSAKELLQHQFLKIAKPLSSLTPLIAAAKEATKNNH
Chain of PDGFRα wt (P16234 24-1089): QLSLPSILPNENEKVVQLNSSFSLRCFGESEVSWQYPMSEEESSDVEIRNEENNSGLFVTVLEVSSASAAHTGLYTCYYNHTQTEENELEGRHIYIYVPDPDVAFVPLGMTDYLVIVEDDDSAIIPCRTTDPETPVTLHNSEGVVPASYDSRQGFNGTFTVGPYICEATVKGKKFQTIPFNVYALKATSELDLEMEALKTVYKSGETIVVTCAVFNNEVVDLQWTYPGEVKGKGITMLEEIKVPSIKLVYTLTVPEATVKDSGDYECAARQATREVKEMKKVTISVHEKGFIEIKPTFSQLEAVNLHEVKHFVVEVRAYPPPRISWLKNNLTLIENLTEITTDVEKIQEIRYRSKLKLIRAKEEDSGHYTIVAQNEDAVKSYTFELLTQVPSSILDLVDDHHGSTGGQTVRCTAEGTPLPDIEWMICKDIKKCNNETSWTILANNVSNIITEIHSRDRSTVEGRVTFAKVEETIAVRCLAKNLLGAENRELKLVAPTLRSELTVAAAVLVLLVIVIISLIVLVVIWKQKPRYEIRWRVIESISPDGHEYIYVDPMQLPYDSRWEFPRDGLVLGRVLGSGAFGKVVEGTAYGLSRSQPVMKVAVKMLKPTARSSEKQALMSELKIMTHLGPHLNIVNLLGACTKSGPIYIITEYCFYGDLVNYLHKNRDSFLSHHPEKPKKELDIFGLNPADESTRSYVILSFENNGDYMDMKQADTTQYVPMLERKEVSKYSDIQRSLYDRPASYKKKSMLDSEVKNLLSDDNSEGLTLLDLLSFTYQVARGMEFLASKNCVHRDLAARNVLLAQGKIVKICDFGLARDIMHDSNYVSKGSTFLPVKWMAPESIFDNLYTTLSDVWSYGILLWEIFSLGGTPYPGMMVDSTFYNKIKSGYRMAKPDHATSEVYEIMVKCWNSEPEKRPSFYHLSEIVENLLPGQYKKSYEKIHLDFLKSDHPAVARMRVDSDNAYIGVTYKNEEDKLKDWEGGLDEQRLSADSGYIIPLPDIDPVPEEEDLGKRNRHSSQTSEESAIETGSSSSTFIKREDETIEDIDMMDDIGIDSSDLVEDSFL
Chain of ALK2 (Q04771 21-509, species assumed): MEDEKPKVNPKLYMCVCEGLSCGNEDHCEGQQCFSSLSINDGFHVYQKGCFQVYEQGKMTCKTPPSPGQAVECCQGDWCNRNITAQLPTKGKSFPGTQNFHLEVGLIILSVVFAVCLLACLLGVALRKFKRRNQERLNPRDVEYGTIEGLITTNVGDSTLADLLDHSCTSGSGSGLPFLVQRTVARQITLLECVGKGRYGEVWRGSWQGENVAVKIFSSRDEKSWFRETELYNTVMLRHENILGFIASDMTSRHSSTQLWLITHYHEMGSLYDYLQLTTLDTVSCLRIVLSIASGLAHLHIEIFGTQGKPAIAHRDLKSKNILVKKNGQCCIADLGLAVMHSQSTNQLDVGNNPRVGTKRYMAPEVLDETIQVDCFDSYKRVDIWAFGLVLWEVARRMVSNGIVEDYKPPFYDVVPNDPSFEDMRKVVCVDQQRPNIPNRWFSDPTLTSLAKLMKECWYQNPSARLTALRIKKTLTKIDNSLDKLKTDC
Chain of ALK1 (P37023 22-503, species assumed): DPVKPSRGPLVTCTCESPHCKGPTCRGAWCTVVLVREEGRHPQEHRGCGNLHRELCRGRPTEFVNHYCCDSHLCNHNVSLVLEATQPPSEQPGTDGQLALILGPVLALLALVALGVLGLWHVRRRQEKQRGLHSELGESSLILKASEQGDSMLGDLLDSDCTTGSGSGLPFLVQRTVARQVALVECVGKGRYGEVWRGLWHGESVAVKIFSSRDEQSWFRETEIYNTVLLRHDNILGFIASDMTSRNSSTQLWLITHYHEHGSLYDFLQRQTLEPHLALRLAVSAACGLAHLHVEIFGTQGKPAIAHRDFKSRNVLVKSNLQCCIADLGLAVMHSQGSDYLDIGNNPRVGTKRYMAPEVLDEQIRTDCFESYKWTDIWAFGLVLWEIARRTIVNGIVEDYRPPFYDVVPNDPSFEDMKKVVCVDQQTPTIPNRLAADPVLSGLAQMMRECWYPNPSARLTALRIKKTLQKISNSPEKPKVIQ

Structure (SMILES): Cc1cccc(-c2[nH]c(CNc3ccccc3F)nc2-c2ccc3ncnn3c2)n1 [Example 2, N-((4-([1,2,4]triazolo[1,5-a]pyridin-6-yl)-5-(6-methylpyridin-2-yl)-1H-imidazol-2-yl)methyl)-2-fluoroaniline]
- inhibition at 1 µM [1, 18]: -7%
- inhibition at 10 µM [1, 19]: 18%
- inhibition at 1 µM [2, 18]: 5%
- inhibition at 10 µM [2, 19]: 2%
- inhibition at 1 µM [3, 18]: 5%
- inhibition at 10 µM [3, 19]: 11%
- inhibition at 1 µM [4, 18]: 17%
- inhibition at 10 µM [4, 19]: 71%
- inhibition at 1 µM [5, 18]: 6%
- inhibition at 10 µM [5, 19]: 14%
- inhibition at 1 µM [6, 18]: -7%
- inhibition at 10 µM [6, 19]: 3%
- inhibition at 1 µM [7, 18]: 47%
- inhibition at 10 µM [7, 19]: 87%
- inhibition at 1 µM [8, 18]: 20%
- inhibition at 10 µM [8, 19]: 66%
- inhibition at 1 µM [9, 18]: 53%
- inhibition at 10 µM [9, 19]: 91%
- inhibition at 1 µM [10, 18]: -7%
- inhibition at 10 µM [10, 19]: -3%
- inhibition at 1 µM [11, 18]: -9%
- inhibition at 10 µM [11, 19]: 4%
- IC50 [12]: 0.391 µM
- inhibition at 1 µM [13, 18]: -8%
- inhibition at 10 µM [13, 19]: 43%
- inhibition at 1 µM [14, 18]: 0%
- inhibition at 10 µM [14, 19]: 3%
- inhibition at 1 µM [15, 18]: 17%
- inhibition at 10 µM [15, 19]: 66%
- inhibition at 1 µM [16, 18]: 14%
- inhibition at 10 µM [16, 19]: 47%
- number of metastastic nodules on the lung ([17]; Example 3 13.6 or 27.3 mg/kg orally BID, four weeks, Example 2 5, 10, 20, or 40 mg/kg orally, Example 61 43.6 mg/kg intraperitoneally every other day, 2.5 weeks): significantly reduced
- TGF-β1-induced Smad2 phosphorylation in tumor tissues ([17]; Experiment 3, 5, 10, 20, or 40 mg/kg orally every other day for 24 days, Western blot): suppressed
